Several values for one entry are separate records, joined by “and”; a condition that tells them apart may be missing. Identical values can stand only once. Entries after “also recorded” stand apart in the source; their conditions may differ.
Experiments:
B16 Melanocarcinoma = assay: NCI screen, B16 Melanocarcinoma, intraperitoneal (summary); type: in vivo, Mouse; details: for Antitumor activity in words: B16
Excerpt: (§1) The activity of the compound has been evaluated by experiments carried out under the auspices of the Division of Cancer Treatment, National Cancer Institute, employing techniques considered to be reliable indicators of chemotherapeutic utility in the treatment of forms of cancer in human patients. The details of the methodology employed in the reported experiments may be determined with reference to established NCI screening methods.
In the experiments conducted by the NCI, evaluation of activity is made on the basis of appropriate parameters, such as median survival time (MST) or change in average tumor diameter (CATD)in ocular micrometer units (OMU).

CD8F1 mammary tumor = assay: NCI screen, CD8F1 mammary tumor, subcutaneous (summary); type: in vivo, Mouse; details: for Antitumor activity in words: CD8F1 mammary
Excerpt: as §1, with “methods. In the experiments conducted by the NCI, evaluation of activity is made on the basis of appropriate parameters, such as median survival time (MST) or change in average tumor diameter (CATD)in ocular micrometer units (OMU).” for “methods.”

L-1210 Lymphoid leukemia [1] = assay: Experiment 6: L-1210 i.p., 10^4 cells, saline with Tween-80, male; type: in vivo, Mouse CD2 F1 (CDF1)
Excerpt: Host: Mouse CD2 F1 (CDF1)
(§2) Tumor: L-1210 Lymphoid leukemia
(§3) Inoculum Site: Intraperitoneal
(§4) Vehicle: Saline with Tween-80
(§5) Treatment schedule (relative to tumor inoculation day): daily on days 1-9
(§6) Day of evaluation (relative to tumor inoculation day): 30
Parameter: Median survival time (MST) in days
(§7) NCI minimal activity criteria: Percent T/C≥125
(§8) Percent T/C: Ratio of test (T) evaluation to control (C) evaluation expressed as a percentage

L-1210 Lymphoid leukemia [2] = assay: Experiment 9: L-1210 i.p., 10^5 cells, saline with Tween-80, male; type: in vivo, CD2F1 (CDF)
Excerpt: as §2, §3, §4, §5, §6
(§9) Parameter: Mean survival time (MST) in days
as §7, §8

Colon 38 = assay: Experiment 12 (first): Colon 38 s.c., saline with Tween-80, male; type: in vivo, Mouse B6 D2 F1 (BDF1)
Excerpt: Host: Mouse B6 D2 F1 (BDF1)
Inoculum Site: Subcutaneous
as §4
Treatment schedule (relative to tumor inoculation day) days 2 and 9
Day of evaluation (relative to tumor inoculation day): 20
Parameter: Median tumor weight (MTW) estimated from tumor diameter
NCI minimal activity criteria: Percent T/C≤42
as §8

M5076 ovarian carcinoma = assay: Experiment 21: M5076 i.p., 10^6 cells, acid diluted with saline, female; type: in vivo, Mouse
Excerpt: Tumor: M5076 ovarian carcinoma
as §3
Vehicle: Acid diluted with saline
Treatment schedule (relative to tumor inoculation day): every 4 days for 4 times
Day of evaluation (relative to tumor inoculation day): 60
as §9
NCI minimal activity criteria: Percent T/C≥125.
Percent T/C: Ratio of test (T) evaluation to control (C) evaluation expressed as a percentage.

beagle dogs [3] = assay: Single dose dog toxicity study; type: in vivo; details: for Mortality / lethality: single; for toxicity summary, dogs: single dose i.v.
Protocol: (§10) Preclinical toxicity studies of BIDA were completed in CD2F1 Mice, Fischer 344 rats and beagle dogs (4). The animals were injected IV with a single bolus or daily for five days.
(§11) A preclinical toxicology study of benzisoquinolinedione (NSC-308847) was done at Springborn Institute for Bioresearch, Inc. using CD2 F1 mice, Fischer 344 rats and beagle dogs. Animals were injected intravenously on a single dose (X1) or five daily dose (X5) regimen. Bulk drug was titrated with 0.5N HCl to form a salt solution of benzisoquinolinedione at a pH of 5.0-6.5. Sterile 0.9% saline was used for diluting the dosing solutions and was used for the vehicle control animals.
(§12) The following summarizes the major organ toxicities resulting from IV administration of benzisoquinolinedione to dogs.

beagle dogs [4] = assay: Five daily dose dog toxicity study; type: in vivo
Protocol: as §10, §11, §12

[5] = 18.4 mg/kg, three dogs, days 2, 3 and/or 4

CN(C)CCN1C(=O)c2cccc3cc(N)cc(c23)C1=O [Example 9, 1H-Benz[de]isoquinoline-1,3(2H)-dione, 5-amino-2-[2-(dimethylamino)ethyl]]
increased life spans (B16 Melanocarcinoma; 16 mg/kg i.p. days 1-9, three experiments): 37-55%
Antitumor activity in words (B16 Melanocarcinoma; listed as BIDA): Activity was seen
Antitumor activity in words (B16 Melanocarcinoma; listed as the compound): at least a reproducible minimal activity; also recorded: active
Table II evaluation (B16 Melanocarcinoma; median survival time, 28 tests, full wrapped cell: Reproducible minimal activity): Reproducible minimal
Antitumor activity in words (CD8F1 mammary tumor; listed as BIDA): not active
Antitumor activity in words (CD8F1 mammary tumor; listed as the compound): not observed to be effective
Table II evaluation (CD8F1 mammary tumor; change in median tumor weight, 15 tests, full wrapped cell: Activity not confirmed): Activity not
Median survival time (MST) (L-1210 Lymphoid leukemia [1]; 2.00 mg/kg i.p.): 9.7 days
Percent T/C (L-1210 Lymphoid leukemia [1]; 2.00 mg/kg i.p.): 105%
Median survival time (MST) (L-1210 Lymphoid leukemia [1]; 4.00 mg/kg i.p.): 10.7 days
Percent T/C (L-1210 Lymphoid leukemia [1]; 4.00 mg/kg i.p.): 116%
Median survival time (MST) (L-1210 Lymphoid leukemia [1]; 8.00 mg/kg i.p.): 12.0 days
Percent T/C (L-1210 Lymphoid leukemia [1]; 8.00 mg/kg i.p.): 130%
Median survival time (MST) (L-1210 Lymphoid leukemia [1]; 16.00 mg/kg i.p.): 19.0 days
Percent T/C (L-1210 Lymphoid leukemia [1]; 16.00 mg/kg i.p.): 200%
Median survival time (MST) (L-1210 Lymphoid leukemia [1]; 32.00 mg/kg i.p.): 8.3 days
Percent T/C (L-1210 Lymphoid leukemia [1]; 32.00 mg/kg i.p.): 90%
Mean survival time (MST) (L-1210 Lymphoid leukemia [2]; 1.00 mg/kg i.p.): 9.0 days
Percent T/C (L-1210 Lymphoid leukemia [2]; 1.00 mg/kg i.p.): 104%
Mean survival time (MST) (L-1210 Lymphoid leukemia [2]; 2.00 mg/kg i.p.): 8.7 days
Percent T/C (L-1210 Lymphoid leukemia [2]; 2.00 mg/kg i.p.): 101%
Mean survival time (MST) (L-1210 Lymphoid leukemia [2]; 4.00 mg/kg i.p.): 9.3 days
Percent T/C (L-1210 Lymphoid leukemia [2]; 4.00 mg/kg i.p.): 108%
Mean survival time (MST) (L-1210 Lymphoid leukemia [2]; 8.00 mg/kg i.p.): 11.7 days
Percent T/C (L-1210 Lymphoid leukemia [2]; 8.00 mg/kg i.p.): 136%
Mean survival time (MST) (L-1210 Lymphoid leukemia [2]; 16.00 mg/kg i.p.): 17.0 days
Percent T/C (L-1210 Lymphoid leukemia [2]; 16.00 mg/kg i.p.): 197%
Mean survival time (MST) (L-1210 Lymphoid leukemia [2]; 32.00 mg/kg i.p.): 7.7 days
Percent T/C (L-1210 Lymphoid leukemia [2]; 32.00 mg/kg i.p.): 89%
Median tumor weight (MTW) (Colon 38; 2.00 mg/kg i.p.): 685
Percent T/C (Colon 38; 2.00 mg/kg i.p.): 72%
Median tumor weight (MTW) (Colon 38; 4.00 mg/kg i.p.): 775
Percent T/C (Colon 38; 4.00 mg/kg i.p.): 81%
Median tumor weight (MTW) (Colon 38; 8.00 mg/kg i.p.): 861
Percent T/C (Colon 38; 8.00 mg/kg i.p.): 90%
Median tumor weight (MTW) (Colon 38; 16.00 mg/kg i.p.): 733
Percent T/C (Colon 38; 16.00 mg/kg i.p.): 77%
Median tumor weight (MTW) (Colon 38; 32.00 mg/kg i.p.): 270
Percent T/C (Colon 38; 32.00 mg/kg i.p.): 28%
Median tumor weight (MTW) (Colon 38; 64.00 mg/kg i.p.): 252
Percent T/C (Colon 38; 64.00 mg/kg i.p.): 26%
Mean survival time (MST) (M5076 ovarian carcinoma; 4.50 mg/kg i.p.): 29,0 days
Percent T/C (M5076 ovarian carcinoma; 4.50 mg/kg i.p.): 109%
Mean survival time (MST) (M5076 ovarian carcinoma; 9,00 mg/kg i.p.): 28,7 days
Percent T/C (M5076 ovarian carcinoma; 9,00 mg/kg i.p.): 107%
Mean survival time (MST) (M5076 ovarian carcinoma; 18,00 mg/kg i.p.): 30,8 days
Percent T/C (M5076 ovarian carcinoma; 18,00 mg/kg i.p.): 115%
Mean survival time (MST) (M5076 ovarian carcinoma; 36,00 mg/kg i.p.): 37,0 days
Percent T/C (M5076 ovarian carcinoma; 36,00 mg/kg i.p.): 139%
Mean survival time (MST) (M5076 ovarian carcinoma; 72,00 mg/kg i.p.): Toxic.
gross or microscopic lesions (beagle dogs [3]; 0.92 mg/kg): No drug-related gross or microscopic lesions were found
Mortality / lethality (beagle dogs [3]; 0.92 mg/kg (1/10MELD10)): 0/4
SGPT (beagle dogs [3]; 0.92 mg/kg, days 2 and 4): 27-40 I.U./L
BUN (beagle dogs [3]; 0.92 mg/kg, one dog, day 4): 26 mg/dL
Creatinine (beagle dogs [3]; 0.92 mg/kg, one dog, day 4): 1.29 mg/dL
gross or microscopic lesions (beagle dogs [3]; 9.2 mg/kg): No drug-related gross or microscopic lesions were found
Mortality / lethality (beagle dogs [3]; 9.2 mg/kg (MELD10)): 0/4
Creatinine (beagle dogs [3]; 9.2 mg/kg, day 4): 1.31 mg/dL
BUN (beagle dogs [3]; 9.2 mg/kg, one dog, days 2 and 4): 22 to 23 mg/dL
SGPT (beagle dogs [3]; 9.2 mg/kg, three dogs, days 2 and/or 4): 32-43 I.U./L
Nervous system signs (beagle dogs [3]; 18.4 mg/kg): vocalizations, struggling against restraint, excessive salivation, hyperextension of all limbs and/or labored breathing
Mortality / lethality (beagle dogs [3]; 18.4 mg/kg (2XMELD10), listed as BIDA): Neither the single injection of 2×MELD10 or the daily×5 injection of the 3×MELD10 caused lethality
Mortality / lethality (beagle dogs [3]; 18.4 mg/kg (2XMELD10), listed as benzisoquinolinedione): no deaths and 0/4
BUN (beagle dogs [3]; 18.4 mg/kg, all dogs, day 2): 23 to 32 mg/dL
leukopenia (leukocyte count) (beagle dogs [3]; 18.4 mg/kg, days 3, 8 or 4): 3.8-5.4 ×10^3 /cmm
gross or microscopic lesions (beagle dogs [3]; 18.4 mg/kg, listed as benzisoquinolinedione): No gross or microscopic lesions were seen; also recorded: No drug-related gross or microscopic lesions were found
SGOT (beagle dogs [3]; [5]): 43-70 I.U./L
SGPT (beagle dogs [3]; [5]): 40-57 I.U./L
BUN (beagle dogs [3]; 18.4 mg/kg, two long-term dogs, days 22 and 29 or 28): 23 to 29 mg/dL
toxicity summary, dogs (beagle dogs [3]; listed as BIDA): Hematopoletic, renal and hepatic toxicity; also recorded: Signs indicating pain and/or neurotoxicity
toxicity summary, dogs (beagle dogs [3]; listed as benzisoquinolinedione): reversible toxicity to the hematopoietic system, kidney and liver; also recorded: Signs indicative of pain and/or neurotoxicity; also recorded: No drug-related gross or microscopic lesions
drug-related toxicities (beagle dogs [4]; 0.38 mg/kg/day): No drug-related toxicities were found
Mortality / lethality (beagle dogs [4]; 0.38 mg/kg/day (1/10MELD10)): 0/4
drug-related toxicities (beagle dogs [4]; 3.8 mg/kg/day): No drug-related toxicities were found
Mortality / lethality (beagle dogs [4]; 3.8 mg/kg/day (MELD10)): 0/4
gross or microscopic lesions (beagle dogs [4]; 11.4 mg/kg/day): No drug-related gross or microscopic lesions were found
Mortality / lethality (beagle dogs [4]; 11.4 mg/kg/day (3XMELD10), listed as BIDA): Neither the single injection of 2×MELD10 or the daily×5 injection of the 3×MELD10 caused lethality
Mortality / lethality (beagle dogs [4]; 11.4 mg/kg/day (3XMELD10), listed as benzisoquinolinedione): no deaths and 0/4
leukopenia (leukocyte count) (beagle dogs [4]; 11.4 mg/kg/day, all four dogs): 3.5-6.6 ×10^3 /cmm
Nervous system signs (beagle dogs [4]; 11.4 mg/kg/day, days 2 and/or 3): Three of four dogs showed signs indicating nervous system toxicity
BUN (beagle dogs [4]; 11.4 mg/kg/day, one dog, day 8): 27 mg/dL
decrease in hemoglobin, hematocrit and red blood cells below pretest values (beagle dogs [4]; 11.4 mg/kg/day, two dogs, day 4 or 8): 15-24%
toxicity summary, dogs (beagle dogs [4]; five daily doses i.v., listed as benzisoquinolinedione): reversible toxicity to the hematopoietic system, kidney and liver; also recorded: Signs indicative of pain and/or neurotoxicity; also recorded: No drug-related gross or microscopic lesions

— patent US5183821A, “Method for treating leukemias using N-(2-dimethylaminoethyl)-3-amino-1,8-naphthalimide for treating leukemias and solid tumors” (priority 1991, dated 1993)
